The values that follow come from patent US10041933B2, “Modulators of the interaction of astrin and raptor, and uses thereof in cancer therapy” (ALBERT-LUDWIGS-UNIVERSITÄT FREIBURG, priority 2013, dated 2018).

In data set [1] the test system is oral squamous carcinoma cell lines. The note with it: cited from earlier work.
Data set [2] deals with p70-S6K1-pT389 (mTORC1 substrate). In words: Immunoblot of mTORC1 substrate p70-S6K1-pT389 after insulin/aa induction. The note with it: astrin knockdown, insulin and aa 10 minutes; Rapamycin 100 nM, PP242 250 nM. It is filed as cell-based. On the procedure: Experiments were performed in HeLa α Kyoto cells, and BT474, MDA-MB-231, MDA-MB-453, T-47D, MCF-7 breast cancer cell lines. […] Cultivation of breast cancer cell lines T-47D, BT474, MDA-MB-231 and MDA-MB-453 was done in the following media: RPMI (PAA, Pasching, Austria) supplemented with 100 nM insulin. MCF7 cells were cultivated in RPMI (PAA, Pasching, Austria). Insulin/aa induction was done as described (Sonntag et al., 2012). Prior to stress induction with 500 μM Arsenite or 2 mM H2O2, cells were starved for 16 h in DMEM without Glucose and fetal calf serum (PAA, Pasching, Austria) supplemented with 1.5% L-glutamine.
Stress granules were analysed after 30 min. stress induction. Apoptosis was analysed after 1-3 hours stress induction. Inhibitors were obtained from Calbiochem, Merck KGaA, Darmstadt, Germany and Sigma Aldrich, St. Louis, USA; dissolved in DMSO, and applied 30 min. prior to all induction regimens, at the following concentrations: Rapamycin (100 nM), PP242 (250 nM), Wortmannin (200 nM), Cycloheximide (2 μg/mL); HeLa cells were synchronized with Nocodazole (400 ng/mL) and subsequent mitotic shake off at G2/M, and released as described (Thein, K. H., Kleylein-Sohn, J., Nigg, E. A., and Gruneberg, U. (2007). Astrin is required for the maintenance of sister chromatid cohesion and centrosome integrity. J Cell Biol 178, 345-354). […]
On the technique in general: In western blotting, separated proteins are transferred to a membrane and probed.

In the case of `CCCCCCCC/C=C\CCCCCCCCCCCCOP(=O)([O-])OCC[N+](C)(C)C` [Erufosine], the cytotoxicity entry in data set [1] is recorded as “dose-dependent cytotoxicity in all cell lines”.
Turning to `CC(C)n1nc(-c2cc3cc(O)ccc3[nH]2)c2c(N)ncnc21` [PP242], the “p70-S6K1-pT389 in astrin deficient cells” value in data set [2] is given as “potently inhibited”.
